{"source": "patent US12697343B2", "about": "“Intravenous istaroxime for the treatment of acute heart failure” (Seismic Pharmaceuticals Operations LLC, priority 2021, dated 2026)", "key": {"[1]": {"system": "patients hospitalized for acute heart failure (AHF)", "conditions": "intention-to-treat analysis, Carubelli et al., cited from earlier work"}, "[2]": {"system": "patients hospitalized for acute heart failure (AHF)", "assay": "Adverse events, serious adverse events, laboratory safety and mortality to day 30", "assay_type": "in vivo, human", "protocol": "(§1) The primary efficacy endpoint was the change from baseline to 24 h after the start of the infusion in the E/e ratio assessed by tissue Doppler echocardiography. Secondary endpoints included the change from baseline to 24 h of other echocardiography parameters: LVEF, left ventricular end-systolic and end-diastolic volumes, stroke volume index, E, A, E/A ratio, and S′: changes in dyspnoea by visual analogue scale (VAS) and in NT-proBNP from baseline to 24 h: proportion of patients with hospital readmissions or emergency visits for cardiovascular reasons by day 30; proportion of patients with episodes of in-hospital worsening heart failure to day 4, and length of stay. In-hospital worsening heart failure was defined by the need to increase the dose or reinitiate intravenous therapy with diuretics and/or other inotropic agents to day 4. Safety endpoints were assessed throughout the study and included: incidence of adverse events (AEs): change in vital signs and in 12-lead electrocardiographic (ECG) parameters: incidence of clinically or haemodynamically significant episodes of supraventricular or ventricular arrhythmias detected by continuous ECG monitoring: standard laboratory parameters: renal function: cardiac troponin T (cTnT): incidence of cTnT elevations, and mortality at day 30. Elevations in cTnT were considered significant if they were >50% or >20% from baseline values, for patients with cTnT below or above the 99% upper reference limit at baseline, respectively.\nThe study design included a 24 h screening period, a 24 h study drug infusion phase (day 1), a post-treatment phase (days 2-4), and a follow-up visit at day 30 (FIG. 5). Patients could be enrolled at any time after admission. The use of oral medications was permitted during the study with the exception of digoxin. Intravenous diuretics were permitted during the treatment period at stable doses, unless changes were required due to clinically relevant variations of the patient's condition. If treatment with an inotrope was clinically necessary during the infusion period, the investigational product was discontinued. Echocardiography was performed according to international standards at screening, baseline (just before starting study drug infusion), 6, 24 h (just before infusion end), and 48 h after infusion start. Echocardiographic measurements at baseline, 6, 24, and 48 h were evaluated in a blinded fashion by a CoreLab located at the University and Civil Hospital of Brescia, Italy. E/e′ ratio was calculated as the ratio between the peak early diastolic mitral flow velocity (E wave) and the mean of the annular lateral (e′ lateral) and septal (e′ septal) velocities, according to standard guidelines.^20 Intraobserver and interobserver variability in E/e′ measurement was tested on the 15% of the recordings and is shown in FIG. 6. Self-reported dyspnoea was assessed using a 100 mm VAS, with zero representing the worst level of dyspnoea and 10 the best breathing condition. […] Serial measurements of NT-proBNP throughout the study were analyzed by a central laboratory (Elecsys® proBNP II, Roche®, Basel, Switzerland). Samples for cTnT were taken at baseline, 3, 6, 12, 24, 48, and 72 h and on day 30, and were analyzed by a core laboratory (Elecsys® high-sensitivity assay, Roche®, Basel, Switzerland). AEs were monitored throughout the duration of the study. […]"}, "[3]": {"system": "patients hospitalized for acute heart failure (AHF)", "design": "species or system human", "conditions": "in vivo", "protocol": "as §1, with “Elevations in cTnT were considered significant if they were >50% or >20% from baseline values, for patients with cTnT below or above the 99% upper reference limit at baseline, respectively.” left out"}, "[4]": {"system": "patients hospitalized for acute heart failure (AHF)", "design": "species or system human", "conditions": "in vivo", "protocol": "as §1, with “In-hospital worsening heart failure was defined by the need to increase the dose or reinitiate intravenous therapy with diuretics and/or other inotropic agents to day 4.” left out, “Elevations in cTnT were considered significant if they were >50% or >20% from baseline values, for patients with cTnT below or above the 99% upper reference limit at baseline, respectively.” left out\nThe study design included a 24 h screening period, a 24 h study drug infusion phase (day 1), a post-treatment phase (days 2-4), and a follow-up visit at day 30 (FIG. 5). […] AEs were monitored throughout the duration of the study. […]", "remark": "listed apart in the source"}, "[5]": {"system": "patients hospitalized for acute heart failure (AHF)", "assay": "Self-reported dyspnoea by visual analogue scale (VAS)", "assay_type": "in vivo, human", "protocol": "as §1\nThe study design included a 24 h screening period, a 24 h study drug infusion phase (day 1), a post-treatment phase (days 2-4), and a follow-up visit at day 30 (FIG. 5). Patients could be enrolled at any time after admission. The use of oral medications was permitted during the study with the exception of digoxin. Intravenous diuretics were permitted during the treatment period at stable doses, unless changes were required due to clinically relevant variations of the patient's condition. If treatment with an inotrope was clinically necessary during the infusion period, the investigational product was discontinued. Echocardiography was performed according to international standards at screening, baseline (just before starting study drug infusion), 6, 24 h (just before infusion end), and 48 h after infusion start. Echocardiographic measurements at baseline, 6, 24, and 48 h were evaluated in a blinded fashion by a CoreLab located at the University and Civil Hospital of Brescia, Italy. E/e′ ratio was calculated as the ratio between the peak early diastolic mitral flow velocity (E wave) and the mean of the annular lateral (e′ lateral) and septal (e′ septal) velocities, according to standard guidelines.^20 Intraobserver and interobserver variability in E/e′ measurement was tested on the 15% of the recordings and is shown in FIG. 6. Self-reported dyspnoea was assessed using a 100 mm VAS, with zero representing the worst level of dyspnoea and […] the best breathing condition. Twenty-four hour ECG monitoring was performed using a three-lead device (Mortara industries, Milwaukee, WI, USA) during the day of screening, the infusion period, and the day after (the latter was optional). Analysis was conducted by a blinded CoreLab (ICS Maugeri, Italy). Serial measurements of NT-proBNP throughout the study were analyzed by a central laboratory (Elecsys® proBNP II, Roche®, Basel, Switzerland). Samples for cTnT were taken at baseline, 3, 6, 12, 24, 48, and 72 h and on day 30, and were analyzed by a core laboratory (Elecsys® high-sensitivity assay, Roche®, Basel, Switzerland). AEs were monitored throughout the duration of the study.\nThe study was designed as a mechanistic and safety study to assess the effects of a 24 h istaroxime infusion in patients hospitalized for AHF. […]"}, "[6]": {"conditions": "istaroxime 1.0 μg/Kg/min (n = 40), 30-day follow-up period"}}, "note": "Counter-ions that a name gives are not always drawn. Like-named read-outs stand apart in the source and are kept apart here.", "data": [{"smiles": "C[C@]12CCC(=NOCCN)C[C@@H]1C(=O)C[C@@H]1[C@@H]2CC[C@]2(C)C(=O)CC[C@@H]12", "note": "[Istaroxime, (E,Z)-3-((2-aminoethoxy)imino)androstane-6,17-dione hydrochloride]", "values": [{"measurement": "mean change in E/e′ ratio at 24 h", "setting": "[1]; 0.5 μg/kg/min", "result": "−4.55 (4.75)"}, {"measurement": "mean change in E/e′ ratio at 24 h", "setting": "[1]; 1.0 μg/kg/min", "result": "−3.16 (2.59)"}, {"measurement": "Mortality within the 30-day study period", "setting": "[2]; 1.0 μg/kg/min group, cardiogenic shock", "result": "One patient died"}, {"measurement": "rate of SAEs", "setting": "[2]; in vivo", "result": "did not show meaningful differences"}, {"measurement": "rate of injection site reactions", "setting": "[2]; in vivo, iv", "result": "high"}, {"measurement": "Serious adverse events: Cardiac death", "setting": "[2]; [6]", "result": "1 number of patients"}, {"measurement": "Serious adverse events: Cardiac death, percent of patients", "setting": "[2]; [6]", "result": "(2.5) %"}, {"measurement": "Renal function measured by eGFR", "setting": "[3]", "result": "generally increased"}, {"measurement": "cardiac troponin absolute values", "setting": "[4]", "result": "No significant changes"}, {"measurement": "Dyspnoea VAS score, mean change from baseline", "setting": "[5]; 0.5 μg/Kg/min, 3 hours", "result": 4.113}, {"measurement": "Dyspnoea VAS score, mean change from baseline", "setting": "[5]; 0.5 μg/Kg/min, 6 hours", "result": 6.582}, {"measurement": "Dyspnoea VAS score, mean change from baseline", "setting": "[5]; 0.5 μg/Kg/min, 12 hours", "result": 6.772}, {"measurement": "Dyspnoea VAS score, mean change from baseline", "setting": "[5]; 0.5 μg/Kg/min, 24 hours", "result": 9.276}, {"measurement": "Dyspnoea VAS score, mean change from baseline", "setting": "[5]; 0.5 μg/Kg/min, 48 hours", "result": 10.948}, {"measurement": "Dyspnoea VAS score, mean change from baseline", "setting": "[5]; 1.0 μg/Kg/min, 3 hours", "result": 4.212}, {"measurement": "Dyspnoea VAS score, mean change from baseline", "setting": "[5]; 1.0 μg/Kg/min, 6 hours", "result": 8.637}, {"measurement": "Dyspnoea VAS score, mean change from baseline", "setting": "[5]; 1.0 μg/Kg/min, 12 hours", "result": 9.076}, {"measurement": "Dyspnoea VAS score, mean change from baseline", "setting": "[5]; 1.0 μg/Kg/min, 24 hours", "result": 13.332}, {"measurement": "Dyspnoea VAS score, mean change from baseline", "setting": "[5]; 1.0 μg/Kg/min, 48 hours", "result": 10.075}]}]}
